From patent EP0173319A1, “Substituted arylsulfonyl guanidines” (BAYER AG, priority 1984, dated 1986)

How the values were obtained:
Testpflanzen [1] = test: Post-emergence-Test (herbicidal); type: in vivo; conditions: test plants 5 - 15 cm high sprayed, damage rated after three weeks vs untreated control (0 % = keine Wirkung, 100 % = totale Vernichtung), rate or species not given
Source text: (§1) Lösungsmittel: 5 Gewichtsteile Aceton Emulgator: 1 Gewichtsteil Alkylarylpolyglykolether
(§2) Zur Herstellung einer zweckmäßigen Wirkstoffzubereitung vermischt man 1 Gewichtsteil Wirkstoff mit der angegebenen Menge Lösungsmittel, gibt die angegebene Menge Emulgator zu und verdünnt das Konzentrat mit Wasser auf die gewünschte Konzentration.
Mit der Wirkstoffzubereitung spritzt man Testpflanzen, welche eine Höhe von 5 - 15 cm haben so, daß die jeweils gewünschten Wirkstoffmengen pro Flächeneinheit ausgebracht werden. Die Konzentration der Spritzbrühe wird so gewählt, daß in 2000 1 Wasser/ha die jeweils gewünschten Wirkstoffmengen ausgebracht werden. Nach drei Wochen wird der Schädigungsgrad der Pflanzen bonitiert in % Schädigung im Vergleich zur Entwicklung der unbehandelten Kontrolle.
Es bedeuten: • 0 % = keine Wirkung (wie unbehandelte Kontrolle) 100 % = totale Vernichtung

Testpflanzen [2] = test: Pre-emergence-Test (herbicidal); type: in vivo; conditions: soil watered 24 h after sowing, damage rated after three weeks vs untreated control (0 % = keine Wirkung, 100 % = totale Vernichtung), rate or species not given
Source text: as §1, §2
Samen der Testpflanzen werden in normalen Boden ausgesät und nach 24 Stunden mit der Wirkstoffzubereitung begossen. Dabei hält man die Wassermenge pro Flächeneinheit zweckmäßigerweise konstant. Die Wirkstoffkonzentration in der Zubereitung spielt keine Rolle, entscheidend ist nur die Aufwandmenge des Wirkstoffs pro Flächeneinheit. Nach drei Wochen wird der Schädigungsgrad der Pflanzen bonitiert in % Schädigung im Vergleich zur Entwicklung der unbehandelten Kontrolle. Es bedeuten: • 0 % = keine Wirkung (wie unbehandelte Kontrolle) 100 % = totale Vernichtung

Structure (SMILES)	herbizide Wirksamkeit (Testpflanzen [1])	herbizide Wirksamkeit (Testpflanzen [2])
CON(C(=NS(=O)(=O)c1ccccc1SC)Nc1nc(C)cc(C)n1)S(=O)(=O)c1ccccc1SC [Beispiel 1, N'-(4,6-Dimethyl-pyrimidin-2-yl)-N''-methoxy-N'',N'''-bis-(2-methylthio-benzolsulfonyl)-guanidin]	sehr gute herbizide Wirksamkeit	sehr gute herbizide Wirksamkeit
Cc1cc(C)nc(NC(=NS(=O)(=O)c2ccccc2S(=O)(=O)N(C)C)NN(C)C)n1 [Beispiel 2, N'-(4,6-Dimethyl-pyrimidin-2-yl)-N''-dimethylamino-N'''-(2-dimethylamino-sulfonyl-benzolsulfonyl)-guanidin]	sehr gute herbizide Wirksamkeit	sehr gute herbizide Wirksamkeit
Cc1cc(C)nc(NC(=NS(=O)(=O)c2ccccc2S(=O)(=O)N(C)C)N(OCC(C)C)S(=O)(=O)c2ccccc2S(=O)(=O)N(C)C)n1.[K] [Beispiel 4, N'-(4,6-Dimethyl-pyrimidin-2-yl)-N''-(2-methyl-propoxy)-N'',N'''-bis-(2-dimethylaminosulfonyl-benzolsulfonyl)-guanidin-Kaliumsalz]	sehr gute herbizide Wirksamkeit	
